Results reported in paper PMC8472597, “Neurosteroids: Structure-Uptake Relationships and Computational Modeling of Organic Anion Transporting Polypeptides (OATP)1A2” (Molecules, 2021).
Where “and” joins values, the source holds several entries; their conditions need not be identical. Equal entries are not always repeated. Where two headings read alike, the source gives them in different places.

How the values were obtained:
[1] = system: MCF-7 cells; test: Concentration-dependent cellular uptake of neurosteroids into MCF-7 cells, Michaelis-Menten / Eadie-Hofstee analysis; format: cell-based, human; details: 5–200 µM; for Transport Mechanism Type 1 Vmax / Km / Transport Mechanism Type 2 Vmax: 30 min, 37 °C, Eadie-Hofstee plot analysis
Experimental: MCF-7 human breast adenocarcinoma cells (HTB-22; RRID: CVCL_0031) were purchased from the American Type Culture Collection (ATCC, Manassas, VA, USA). The cells were cultured in standard conditions (37 °C, 5% CO2) using Dulbecco’s modified Eagle medium (DMEM) supplemented with L-glutamine (2 mM), heat-inactivated fetal bovine serum (10%), penicillin (50 U/mL), and streptomycin (50 μg/mL). Once the cells reached 80% confluence in culture bottles (75 cm^2), the cells were washed twice with DPBS solution and harvested by trypsinization. All the following experiments were carried out with passage number 9–22.
Concentrations of neurosteroids (1–11) were determined by HPLC.
5.03 software (GraphPad Software, San Diego, CA, USA).

[2] = system: efflux transporters (P-gp, BCRP, MRPs); test: Cellular uptake into MCF-7 cells in the presence of efflux inhibitors (elacridar, MK-571); details: 25 µM compound; for Efflux transporter substrate status: 50 µM elacridar and MK-571, pH 7.4, MCF-7 cells
Experimental: The competitive uptake of 25 µM neurosteroids (1–11) in the presence of efflux inhibitors, 50 µM elacridar (P-gp and BCRP), and 50 µM MK-571 (MRPs) at pH 7.4 was carried out as described above, and the concentrations of studied compounds were analyzed with HPLC methods (below), calculated according to the standard curve, and normalized with protein concentration measured to each 24-well plate.
Concentrations of neurosteroids (1–11) were determined by HPLC. The apparatus was comprised of an Agilent 1100 binary pump (Agilent Technologies Inc., Wilmington, DE, USA), 1100 micro vacuum degasser, HP 1050 Auto-sampler, HP 1050 variable wavelength detector, operating at 225 nm. The chromatographic separations were achieved on a Supelco Supelcosil LC-Si analytical column (4.6 mm x 250 mm, 5 ml) (Supelco Inc., Bellefonte, PA, USA) by using isocratic elution of water containing 0.1% phosphoric acid and ACN with ratio of 30:70. The retention times of the compounds were ca. 4.3–4.4 min at the flow rate of 1.0 mL/min at room temperature. […] These HPLC methods were accurate (100 ± 10% of nominal concentration), precise (RSD% <10%), and selective (no interfering peaks) over the range 0.1–2 μM.
All data analyses, including Michaelis-Menten and Eadie-Hofstee analyses, were performed using GraphPad Prism v. […] Statistical differences between groups were tested using one-way ANOVA, followed by a two-tailed Tukey’s multiple comparison test and presented as mean ± SD, with statistically significant difference denoted by * p < 0.05, ** p < 0.01, *** p < 0.001.

[3] = system: MCF-7 cells; details: human, 30 min, 25 µM
Experimental: For the cellular uptake experiments, MCF-7 cells were seeded at the density of 1 × 10^5 cells/well onto 24-well plates a day before the experiments. Cellular uptake of neurosteroids (1–11) dissolved in DMSO and diluted with HBSS or MES buffer containing 5% 2-hydroxypropyl-β-cyclodextrin (HP-β-CD) was studied by incubating the cells with the pre-warmed compound solutions (250 μL) at the concentrations of 1–200 μM, at pH 7.4 (HBSS buffer), or in parallel at 5.0 (MES buffer), at 37 °C for 30 min (uptake was linear with all compounds up to 30 min). Subsequently, the cells were washed three times with ice-cold buffer and lysed with 250 μL of NaOH (0.1 M) for 60 min. The lysates were diluted with acetonitrile (ACN) with a ratio of 1:3 and centrifuged at 10,000× g for 10 min. The samples were analyzed by high-performance liquid chromatography (HPLC) methods described below. The concentrations of each compound were calculated from the standard curve and normalized to protein concentration in each 24-plate that was determined as a mean of three samples by Bio-Rad Protein Assay, based on the Bradford dye-binding method, using BSA as a standard protein and measuring the absorbance (595 nm) by multiplate reader (EnVision, Perkin Elmer, Inc., Waltham, MA, USA).
Concentrations of neurosteroids (1–11) were determined by HPLC. […]

[4] = system: OATP1A2; set-up: method as in PMID 31254566; Vmax: unit not given here; details: reference substrate; cited from earlier work
[5] = read-out: Transport Mechanism Type 1 Km
[6] = read-out: Transport Mechanism Type 2 Km

Row | Compound | Transport Mechanism Type 1 Vmax [1] | Km [1, 5] [µM] | Transport Mechanism Type 2 Vmax [1] | Km [1, 6] [µM] | other results
1 | CC(=O)[C@H]1CCC2C3CC[C@@H]4C[C@H](O)CC[C@]4(C)C3CC[C@@]21C (stereo partly drawn) [Compound 1, 3α5β-Pregnanolone, reference compound] | 26.3 ± 4.2 pmol/mg/min | 55.4 |  |  | Efflux transporter substrate status [2]: substrates for all studied efflux transporters
2 | CC(=O)[C@H]1CCC2C3CC[C@@H]4C[C@H](OC(=O)[C@@H](N)CCC(=O)O)CC[C@]4(C)C3CC[C@@]21C (some centres unmarked) [Compound 2] |  |  |  |  | Uptake profile over concentration (saturation of transporter) [1]: did not reach the saturation stage; Efflux transporter substrate status [2]: efflux phenomenon can be abolished; Cellular uptake in the presence of efflux inhibitors elacridar or MK-571 ([2]; 50 µM inhibitor, pH 7.4, MCF-7 cells): not affected
3 | C[C@@]12CCCC1C1CC[C@@H]3C[C@H](OC(=O)[C@@H](N)CCC(=O)O)CC[C@]3(C)C1CC2 (some centres unmarked) [Compound 3] | 3.0 pmol/mg/min and 3.0 ± 0.4 pmol/mg/min | 7.7 | 8.2 pmol/mg/min and 8.2 ± 0.1 pmol/mg/min | 25.2 | 
4 | C[C@H]1CCC2C3CC[C@@H]4C[C@H](NC(=O)CC(=O)O)CC[C@]4(C)C3CC[C@@]21C (some centres unmarked) [Compound 4] | 13.9 ± 6.7 pmol/mg/min | ~233 |  |  | 
5 | CC(C)(C)OC(=O)N[C@@H](CO)C(=O)N[C@@H]1CC[C@]2(C)C3CC[C@]4(C)CCCC4C3CC[C@@H]2C1 (some centres unmarked) [Compound 5] | 5.3 pmol/mg/min and 5.3 ± 0.4 pmol/mg/min | 76.4 | 34.7 ± 7.7 pmol/mg/min | ~960 | 
6 | C[C@@]12CCCC1C1CC[C@@H]3C[C@H](NC(=O)CCC(=O)O)CC[C@]3(C)C1CC2 (some centres unmarked) [Compound 6] | 3.9 ± 0.5 pmol/mg/min |  | 10.2 ± 0.1 pmol/mg/min |  | 
7 | CC(C)(C)OC(=O)N[C@@H](CC(=O)O)C(=O)N[C@@H]1CC[C@]2(C)C3CC[C@]4(C)CCCC4C3CC[C@@H]2C1 (some centres unmarked) [Compound 7] | 3.0 ± 0.1 pmol/mg/min |  |  |  | 
8 | C[C@@]12CCCC1C1CC[C@@H]3C[C@H](NC(=O)[C@@H](N)CC(=O)O)CC[C@]3(C)C1CC2 (some centres unmarked) [Compound 8] | 8.0 ± 2.1 pmol/mg/min | 10.9 | 28.2 pmol/mg/min and 28.2 ± 0.1 pmol/mg/min | 42.8 | Cellular uptake at pH 5.5 compared to pH 7.4 [3]: increased the uptake of all neurosteroids, except of compound 8
9 | C[C@@]12CCCC1C1CC[C@@H]3C[C@H](NC(=O)CCCC(=O)O)CC[C@]3(C)C1CC2 (some centres unmarked) [Compound 9] | 5.5 ± 0.6 pmol/mg/min | 9.2 | 26.5 ± 3.0 pmol/mg/min | 67.8 | 
10 | CC(C)(C)OC(=O)N[C@@H](CCC(=O)O)C(=O)N[C@@H]1CC[C@]2(C)C3CC[C@]4(C)CCCC4C3CC[C@@H]2C1 (some centres unmarked) [Compound 10] |  | 23 |  | 282 | 
11 | C[C@@]12CCCC1C1CC[C@@H]3C[C@H](NC(=O)[C@@H](N)CCC(=O)O)CC[C@]3(C)C1CC2 (some centres unmarked) [Compound 11] | 17.2 ± 2.1 pmol/mg/min | 24.2 |  |  | 
12 | C[C@]12CC[C@@H]3c4ccc(OS(=O)(=O)O)cc4CC[C@H]3[C@@H]1CCC2=O [Compound E3S, Estrone-3-Sulfate] |  |  |  |  | Km [4]: 6.5 µM; Vmax [4]: 66 ± 8.5; efficacy [4]: 10.21
